The text below walks through data of ChEMBL document CHEMBL1129051, “9-Dihydroxy-2,3,7,11b-tetrahydro-1H-naph[1,2,3-de]isoquinoline: a potent full dopamine D1 agonist containing a rigid-beta-phenyldopamine pharmacophore” (J Med Chem, 1996).

The target in test [1] is D(1A) dopamine receptor (Homo sapiens) (UniProt P21728). Put plainly: Hill slope was determined for the compound in D1 receptor binding assay.
Test [2] concerns the target D(2) dopamine receptor (Homo sapiens) (UniProt P14416).
Description: Hill slope was determined for the compound in D2 receptor binding assay

Sequence of D(1A) dopamine receptor (Homo sapiens) (P21728 whole entry): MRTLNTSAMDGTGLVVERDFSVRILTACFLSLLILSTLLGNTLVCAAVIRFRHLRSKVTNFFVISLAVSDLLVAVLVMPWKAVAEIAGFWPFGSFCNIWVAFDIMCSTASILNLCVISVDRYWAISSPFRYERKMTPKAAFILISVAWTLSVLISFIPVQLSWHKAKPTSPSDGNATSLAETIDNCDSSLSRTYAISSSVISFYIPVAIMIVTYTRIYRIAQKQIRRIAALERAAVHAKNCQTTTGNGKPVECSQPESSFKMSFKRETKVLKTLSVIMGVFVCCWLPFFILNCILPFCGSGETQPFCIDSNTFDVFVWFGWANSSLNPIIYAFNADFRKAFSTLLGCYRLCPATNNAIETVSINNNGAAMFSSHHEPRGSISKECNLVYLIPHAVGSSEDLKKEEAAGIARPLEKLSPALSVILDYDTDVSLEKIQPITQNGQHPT
Sequence of D(2) dopamine receptor (Homo sapiens) (P14416 whole entry): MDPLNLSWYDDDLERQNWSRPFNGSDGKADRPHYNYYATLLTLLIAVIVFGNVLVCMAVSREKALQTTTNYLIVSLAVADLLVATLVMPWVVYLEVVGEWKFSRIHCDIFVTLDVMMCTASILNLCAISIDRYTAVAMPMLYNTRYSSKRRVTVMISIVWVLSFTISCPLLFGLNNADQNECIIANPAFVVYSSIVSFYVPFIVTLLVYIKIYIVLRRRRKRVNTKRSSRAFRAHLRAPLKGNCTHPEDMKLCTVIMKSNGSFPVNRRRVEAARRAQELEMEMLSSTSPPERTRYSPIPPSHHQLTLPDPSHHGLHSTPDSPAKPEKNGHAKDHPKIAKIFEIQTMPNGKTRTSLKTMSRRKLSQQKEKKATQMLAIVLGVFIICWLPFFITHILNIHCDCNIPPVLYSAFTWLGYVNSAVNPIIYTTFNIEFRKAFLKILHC

Consider `CN1CCc2cc(Cl)c(O)cc2[C@@H](c2ccccc2)C1`, for which the nH in test [1] is 1.05.
`CN(C)CCCN1c2ccccc2Sc2ccc(Cl)cc21` came in with a nH in test [2] of 0.93.
The molecule `Oc1cc2c(cc1O)[C@@H](c1ccccc1)CNCC2` displayed a nH in test [1] of 0.75.
The same measure, in the same setting: next, `Oc1ccc2c(c1O)Cc1cccc3c1[C@H]2CNC3`: 0.66.
For the molecule `Oc1cc2c(cc1O)[C@H]1c3ccccc3CN[C@@H]1CC2`, the figures for the nH in test [2] and in test [1] were 0.72 and 0.65, respectively.
